Source: US12589161B2, “PEGylated synthetic KL4 peptide, compositions and methods thereof” (THE UNIVERSITY OF HONG KONG, priority 2019, dated 2026)
Like-named read-outs stand apart in the source and are kept apart here. Non-standard residues stand in square brackets, D forms with d. Residues, ends and D or L forms follow the SMILES beside them. PEG12 = NCCOCCOCCOCCOCCOCCOCCOCCOCCOCCOCCOCCOCCC(=O)O; PEG6 = NCCOCCOCCOCCOCCOCCOCCC(=O)O

How the values were obtained:
[1] = tested on: A549 cells; assay: Cellular uptake study of mRNA (flow cytometry and confocal microscopy); format: cell-based, human; conditions: 10:1 ratio (w/w), cyanine-5 labelled mRNA, 4 h post-transfection, flow cytometry
Method: The cellular uptake of the mRNA was studied by flow cytometry and confocal microscopy. For the flow cytometry study, A549 cells were seeded in 24-well plates at a density of 0.5×10^5 cells per well one day before the experiment. The cells were transfected with naked mRNA, KL4/mRNA and PEG12KL4/mRNA complexes at 10:1 ratio (w/w) in OptiMEM I reduced serum medium containing 1 μg of cyanine-5 labelled EGFP mRNA per well. After 4 h of incubation, the cells were washed and trypsinized. Cells from three separate wells of the same treatment were combined and suspended in culture medium. The extracellular florescent signal was quenched with 0.04% (w/v) trypan blue solution. After 2 min, the cells were washed, resuspended in 300 μL of PBS and sieved with a sterile 40 μm cell strainer (BD Biosciences, CA, USA). The fluorescence intensity was analyzed by flow cytometry (BD FACSCantoII Analyzer, BD Biosciences, CA, USA). At least 1×10^4 single cells were analyzed for each sample. For the confocal study, A549 cells were seeded in a 35 mm Mattek glass bottom culture dish (Mattek Corp. Ashland, MA, USA) at a density of 1×10^5 cells per well one day before imaging. Naked mRNA, KL4/mRNA and PEG12KL4/mRNA complexes at 10:1 ratio (w/w) were prepared in Opti-MEM I reduced serum medium with 2 μg of cyanine-5 labelled mRNA per dish. […]

[2] = Solubility of peptides in water; format: physicochemical
[3] = Circular dichroism, temperature ramping; format: physicochemical; conditions: 6 to 94 °C, 5 mM Tris-HCl buffer, 0.1 mg/mL
Method: KL4 and PEG6KL4 peptides were dissolved in 5 mM Tris-HCl buffer at a final concentration of 0.1 mg/mL in 0.1% (v/v) DMSO. PEG12KL4 and PEG24KL4 were dissolved in 5 mM Tris-HCl buffer at a final concentration of 0.1 mg/mL without DMSO. CD spectra were acquired on a Chirascan™ Spectrometer (Applied Photophysics, Leatherhead, UK). For temperature ramping experiment, far-UV CD spectra were obtained with the peptide solution incubated from 6° C. to 94° C. Spectra were recorded from 260 to 190 nm using a 0.5 mm path length and were processed using Chirascan software where a spectrum of the peptide free solution was subtracted and Savitzky-Gorlay smoothing applied.

[4] = tested on: A549 cells; assay: GAPDH siRNA transfection on A549 cells (Western blot); format: cell-based, human; conditions: for Comparison within the same peptide prepared at different peptide to siRNA ratios: A549, one-way ANOVA, Tukey, n.s. not significant, * p<0.05, ** p<0.01, *** p<0.001; for inhibition of GAPDH protein: A549, 25 nM siRNA, 10:1 ratio (w/w); for siRNA transfection efficiency among the four peptides at different amounts of siRNA: A549, 10:1 ratio, 6 to 100 nM siRNA
Method: A549 cells were seeded in 6-well plates at a density of 1.5×10^5 cells per well one day before transfection. The cells were transfected with peptide/siRNA complexes containing 50 pmol of GAPDH siRNA or negative control siRNA per well (50 nM). The complexes were prepared in OptiMEM I reduced serum medium at 10:1, 15:1 and 20:1 ratios (w/w). Lipofectamine 2000 was used as control. The complexes were added to the cells and incubated for 4 h at 5% CO2, 37° C. before being washed with PBS. The transfection medium was removed and replaced with serum supplemented cell culture medium. At 72 h post-transfection, the cells were washed and lysed with cell lysis buffer. Western blotting assay was performed to analyze the level of GAPDH protein. The GAPDH expression was analyzed by densitometry of Western Blots using Image J software. The remaining GAPDH expression was the density of the GAPDH band of positive control (normalized with beta-actin of the corresponding sample) divided by the GAPDH band of negative control (normalized with the beta actin band of the corresponding sample).
(§1) A549 cells, BEAS-2B and Calu-3 cells were seeded in six-well plates at a density of 1.6×10^5 cells per well, 2×10^5 cells per well and 3×10^5 cells per well, respectively, one to two days before transfection. The cells were transfected with peptide/siRNA complexes at 5:1 to 20:1 ratio (w/w) containing GAPDH siRNA or negative control siRNA (6 to 100 nM) in OptiMEM I reduced serum medium. Lipofectamine 2000 was used for comparison. After 5 h of incubation, the cells were washed and replaced with serum supplemented cell culture medium. At 72 h post-transfection, the cells were washed and lysed with cell lysis buffer. Western blotting assay was performed to analyze the level of GAPDH protein as previously described. The GAPDH expression was analyzed by densitometry of Western blots using ImageJ software (Version 1.52). The GAPDH expression was normalized with the expression of […]-actin of the corresponding sample. The remaining GAPDH expression was the normalized GAPDH expression of positive control divided by the normalized GAPDH expression of negative control.

[5] = tested on: A549 cells; assay: Cellular uptake of siRNA by flow cytometry on A549 cells; format: cell-based, human; conditions: A549, 10:1 ratio, fluorescently labelled siRNA, 4 h
Method: Flow cytometry was used to investigate the cellular uptake of peptide/siRNA complexes. A549 cells and Calu-3 cells were seeded in six-well plates at a density of 2.5×10^5 cells and 4×10^5 cells per well, respectively, one day before the experiment. The cells were transfected with peptide/siRNA complexes at 10:1 ratio (w/w) containing fluorescently labelled siRNA (150 nM) in Opti-MEM I reduced serum medium. The transfection medium was removed after 4 h of incubation, and the cells were washed with PBS once. The cells were trypsinized by 0.25% (w/v) trypsin-EDTA and suspended in culture medium. The extracellular fluorescence signal was quenched with 0.04% (w/v) trypan blue solution. After 2 min of incubation, the cells were washed with PBS thrice. The cells were resuspended in 500 μL of PBS and sieved with a sterile 40 μm cell strainer (BD Biosciences, CA, USA). The fluorescence intensity was analyzed by flow cytometry with PE/PI laser (585/42 nm) (BD FACSCantoII Analyzer, BD Biosciences, CA, USA). At least 10,000 single cells were analyzed for each sample.

[6] = Charge ratio of peptide to siRNA at 10:1 weight ratio
Excerpt: This is partly because the uncharged PEG chains reduced the effective charge ratio between cationic KL4 and siRNA [77]. The charge ratios of KL4, PEG6KL4, PEG12KL4 and PEG24KL4 to siRNA at 10:1 weight ratio are 6.1 to 1, 5.5 to 1, 4.9 to 1 and 4.2 to 1, respectively. […] The molecular weight of the PEG used in this study, which is below 1,200 Da, is relatively low compared with others where PEG of 2,000 to 5,000 Da was often used. Therefore, PEGylated KL4 peptide/siRNA complexes remained to be positively charged, which is suitable for cellular entry. […] In addition, PEG also provides steric hindrance between the interaction of KL4 and siRNA that weakens the binding, promoting the release of siRNA from the complexes after the addition of heparin.

[7] = tested on: Calu-3 cells; assay: GAPDH siRNA transfection on Calu-3 cells (Western blot); format: cell-based, human; conditions: one-way ANOVA, Tukey, n.s. not significant, * p<0.05, ** p<0.01, *** p<0.001
Method: as §1

[8] = tested on: BEAS-2B cells; assay: GAPDH siRNA transfection on BEAS-2B cells (Western blot); format: cell-based, human; conditions: for siRNA transfection efficiency: 50 nM siRNA, 72 h; for Comparison within the same peptide prepared at different peptide to siRNA ratios: one-way ANOVA, Tukey, n.s. not significant, * p<0.05, ** p<0.01, *** p<0.001
Method: as §1

[9] = tested on: A549 cells; assay: Luciferase mRNA transfection in vitro on A549 cells; format: cell-based, human; conditions: 24 h post-transfection
Method: (§2) A549 cells and BEAS-2B cells were seeded in 24-well plates at a density of 0.5×10^5 and 1×10^5 cells per well, respectively, for overnight. The KL4/mRNA and PEG12KL4/mRNA complexes formed at 5:1 to 30:1 ratio (w/w) in OptiMEM I reduced serum medium were added to the cells at 0.5 or 1 μg mRNA per well. Naked mRNA and lipoplexes (Lipofectamine 2000/mRNA complexes) were used as controls. After 4 h of incubation, the transfection medium was replaced with serum supplemented cell culture medium. At 24 h post-transfection, the cells were washed and lysed with reporter cell lysis buffer. The luciferase expression was detected using the luciferase assay system according to the manufacturer's protocol. The luminescence was measured with luminometer (SpectraMax L Microplate Reader, Molecular devices, CA, USA) and the protein concentrations of the cell lysates were quantified by Bradford protein assay. The results were expressed as relative light unit (RLU) per mg of total protein. To study the transfection efficiency of PEG12KL4/mRNA in SD and SFD powder formulations, the powders were reconstituted before adding to the cells. The luciferase expression was examined at 24 h post-transfection as described above.

[10] = tested on: BEAS-2B cells; assay: Luciferase mRNA transfection in vitro on BEAS-2B cells; format: cell-based, human; conditions: 24 h post-transfection
Method: as §2

SMILES | percentage of cells with mRNA uptake [1] | solubility ([2]; water) | secondary structure at different temperatures (far-UV CD) [3] | Comparison within the same peptide prepared at different peptide to siRNA ratios [4] | percentage of cells with siRNA uptake [5] | charge ratio of peptide to siRNA [6] | solubility [2] | inhibition of GAPDH protein ([4]; 72 h) | siRNA transfection efficiency among the four peptides at different amounts of siRNA ([4]; 72 h) | Comparison within the same peptide prepared at different peptide to siRNA ratios [7] | siRNA transfection efficiency [8] | Comparison within the same peptide prepared at different peptide to siRNA ratios [8] | mRNA transfection efficiency compared with Lipofectamine 2000 [9] | mRNA transfection efficiency compared with Lipofectamine 2000 [10] | siRNA transfection compared with KL4 ([4]; A549, 10:1, 15:1 and 20:1 ratios, 50 pmol siRNA, 72 h, n=1 (FIG. 13))
CC(C)C[C@H](NC(=O)[C@H](CC(C)C)NC(=O)[C@H](CC(C)C)NC(=O)[C@H](CC(C)C)NC(=O)[C@H](CCCCN)NC(=O)[C@H](CC(C)C)NC(=O)[C@H](CC(C)C)NC(=O)[C@H](CC(C)C)NC(=O)[C@H](CC(C)C)NC(=O)[C@H](CCCCN)NC(=O)[C@H](CC(C)C)NC(=O)[C@H](CC(C)C)NC(=O)[C@H](CC(C)C)NC(=O)[C@H](CC(C)C)NC(=O)[C@H](CCCCN)NC(=O)[C@H](CC(C)C)NC(=O)[C@H](CC(C)C)NC(=O)[C@H](CC(C)C)NC(=O)[C@H](CC(C)C)NC(=O)[C@@H](N)CCCCN)C(=O)N[C@@H](CCCCN)C(N)=O [KL4, reference compound] (H-KLLLLKLLLLKLLLLKLLLLK-NH2; N-terminus assumed) | 15% | < 1000 µg/mL | the alpha-helical structure gradually turned to a beta-sheet conformation | n.s. | less than 20% | 6.1 to 1 |  |  |  |  |  |  |  |  | 
CC(C)C[C@H](NC(=O)[C@H](CC(C)C)NC(=O)[C@H](CC(C)C)NC(=O)[C@H](CC(C)C)NC(=O)[C@H](CCCCN)NC(=O)[C@H](CC(C)C)NC(=O)[C@H](CC(C)C)NC(=O)[C@H](CC(C)C)NC(=O)[C@H](CC(C)C)NC(=O)[C@H](CCCCN)NC(=O)[C@H](CC(C)C)NC(=O)[C@H](CC(C)C)NC(=O)[C@H](CC(C)C)NC(=O)[C@H](CC(C)C)NC(=O)[C@H](CCCCN)NC(=O)[C@H](CC(C)C)NC(=O)[C@H](CC(C)C)NC(=O)[C@H](CC(C)C)NC(=O)[C@H](CC(C)C)NC(=O)[C@H](CCCCN)NC(=O)CCOCCOCCOCCOCCOCCOCCN)C(=O)N[C@@H](CCCCN)C(N)=O [PEG6KL4] (H-[PEG6]KLLLLKLLLLKLLLLKLLLLK-NH2; N-terminus assumed) |  |  | adopted an alpha-helical structure at all tested temperatures | n.s. |  | 5.5 to 1 | < 1000 µg/mL | 80% | most effective in transfecting siRNA | n.s. | significantly higher transfection efficiency compared with lipofectamine 2000 | n.s. |  |  | 
CC(C)C[C@H](NC(=O)[C@H](CC(C)C)NC(=O)[C@H](CC(C)C)NC(=O)[C@H](CC(C)C)NC(=O)[C@H](CCCCN)NC(=O)[C@H](CC(C)C)NC(=O)[C@H](CC(C)C)NC(=O)[C@H](CC(C)C)NC(=O)[C@H](CC(C)C)NC(=O)[C@H](CCCCN)NC(=O)[C@H](CC(C)C)NC(=O)[C@H](CC(C)C)NC(=O)[C@H](CC(C)C)NC(=O)[C@H](CC(C)C)NC(=O)[C@H](CCCCN)NC(=O)[C@H](CC(C)C)NC(=O)[C@H](CC(C)C)NC(=O)[C@H](CC(C)C)NC(=O)[C@H](CC(C)C)NC(=O)[C@H](CCCCN)NC(=O)CCOCCOCCOCCOCCOCCOCCOCCOCCOCCOCCOCCOCCN)C(=O)N[C@@H](CCCCN)C(N)=O [PEG12KL4] (H-[PEG12]KLLLLKLLLLKLLLLKLLLLK-NH2; N-terminus assumed) | Over 60% |  | more sensitive in response to temperature compared with the other peptides | n.s. |  | 4.9 to 1 | > 2000 µg/mL | 80% | most effective in transfecting siRNA |  | significantly higher transfection efficiency compared with lipofectamine 2000 | n.s. | comparable to that of Lipofectamine 2000 | comparable to that of Lipofectamine 2000 | superior to KL4 in mediating siRNA transfection at all tested ratios
